The source of these data is ChEMBL document CHEMBL1138223, “Synthesis of low-hemolytic antimicrobial dehydropeptides based on gramicidin s” (2006).

One assay relates to Staphylococcus aureus. In words: Antimicrobial activity against Staphylococcus aureus 209P by liquid broth method. The format is functional.
The subject of the next assay is Escherichia coli. Description: Antimicrobial activity against Escherichia coli K12 W3110 by liquid broth method. The assay is classed as functional.
Another assay concerns Erythrocyte. In words: Induction of human erythrocyte hemolysis. The format is functional, cell-based.

≈ marks a conversion by molar mass, not a printed value. Calls of active or inactive are those of the source. No cut-off for these calls is given here. Numbered stars: 1 amine (or outer) side, 2 acyl side, 3 side chain; on linkers, the order of the positions; unused ones are H or OH. Square brackets hold non-standard residues; d marks the D form. Peptide text beside a SMILES is read from it. X1 = O=C(/C(=C/c1cccnc1)N[*:1])[*:2]; X2 = O=C(/C(=C/c1ccccc1)N[*:1])[*:2]; Orn = NCCC[C@H](N)C(=O)O

For `CC(C)C[C@@H]1NC(=O)[C@H](CCCN)NC(=O)[C@H](C(C)C)NC(=O)[C@@H]2CCCN2C(=O)[C@@H](Cc2cccnc2)NC(=O)[C@H](CC(C)C)NC(=O)[C@H](CCCN)NC(=O)[C@H](C(C)C)NC(=O)[C@@H]2CCCN2C(=O)[C@@H](Cc2cccnc2)NC1=O`, the MIC in the assay with Staphylococcus aureus and against Escherichia coli was 64 µg/mL (≈ 56 µM) throughout. For the same compound, in the assay with Erythrocyte, the outcome was inactive.
As for `CC(C)C[C@@H]1NC(=O)[C@H](CCCN)NC(=O)[C@H](C(C)C)NC(=O)[C@@H]2CCCN2C(=O)/C(=C/c2cccnc2)NC(=O)[C@H](CC(C)C)NC(=O)[C@H](CCCN)NC(=O)[C@H](C(C)C)NC(=O)[C@@H]2CCCN2C(=O)/C(=C/c2cccnc2)NC1=O` (cyclo(L[X1]PV[Orn]L[X1]PV[Orn])), the MIC (as a rule, the lowest concentration found to suppress growth) with Staphylococcus aureus was determined as 8 µg/mL (≈ 7.02 µM); against Escherichia coli it was 32 µg/mL (≈ 28.1 µM).
In the same order, the values of `CC(C)C[C@@H]1NC(=O)[C@H](CCCN)NC(=O)[C@H](C(C)C)NC(=O)[C@@H]2CCCN2C(=O)/C(=C/c2ccccc2)NC(=O)[C@H](CC(C)C)NC(=O)[C@H](CCCN)NC(=O)[C@H](C(C)C)NC(=O)[C@@H]2CCCN2C(=O)/C(=C/c2cccnc2)NC1=O` (cyclo(L[X2]PV[Orn]L[X1]PV[Orn])) are 4 µg/mL (≈ 3.51 µM) and 32 µg/mL (≈ 28.1 µM).
`CC(C)C[C@@H]1NC(=O)[C@H](CCCN)NC(=O)[C@H](C(C)C)NC(=O)[C@@H]2CCCN2C(=O)/C(=C/c2ccccc2)NC(=O)[C@H](CC(C)C)NC(=O)[C@H](CCCN)NC(=O)[C@H](C(C)C)NC(=O)[C@@H]2CCCN2C(=O)/C(=C/c2ccccc2)NC1=O` (cyclo(L[X2]PV[Orn]L[X2]PV[Orn])): the minimum inhibitory concentration (MIC) amounted to 4 µg/mL (≈ 3.52 µM) against Staphylococcus aureus and 32 µg/mL (≈ 28.1 µM) against Escherichia coli.
In the same order, the values of `CC(C)C[C@@H]1NC(=O)[C@H](CCCN)NC(=O)[C@H](C(C)C)NC(=O)[C@@H]2CCCN2C(=O)[C@@H](Cc2ccc(O)cc2)NC(=O)[C@H](CC(C)C)NC(=O)[C@H](CCCN)NC(=O)[C@H](C(C)C)NC(=O)[C@@H]2CCCN2C(=O)[C@@H](Cc2ccc(O)cc2)NC1=O` (cyclo(L[dY]PV[Orn]L[dY]PV[Orn])) are 4 µg/mL (≈ 3.41 µM) and 32 µg/mL (≈ 27.3 µM).
`CC(C)C[C@@H]1NC(=O)[C@H](CCCN)NC(=O)[C@H](C(C)C)NC(=O)[C@@H]2CCCN2C(=O)[C@@H](Cc2ccccc2)NC(=O)[C@H](CC(C)C)NC(=O)[C@H](CCCN)NC(=O)[C@H](C(C)C)NC(=O)[C@@H]2CCCN2C(=O)[C@@H](Cc2ccccc2)NC1=O` [GRAMICIDIN S] (cyclo(L[dF]PV[Orn]L[dF]PV[Orn])): the figures for the MIC against Staphylococcus aureus and with Escherichia coli were 4 µg/mL (≈ 3.5 µM) and 16 µg/mL (≈ 14 µM), respectively.
